Results on 2 compounds are retold here after PMC12482042, “Targeting galectin-3 in cancer by novel and unique inhibitors of non-carbohydrate origin” (Molecular Medicine, 2025).

Read-outs that look alike come from different tables or passages of the source.

By Kd is commonly meant the free concentration of one partner at which half of the binding sites on the other are occupied at equilibrium, for simple one-to-one binding. A lower Kd goes with tighter binding.

Assay [1] deals with T1, galectin-3 (Homo sapiens, UniProt P17931).
T1 construct: gene LGALS3; human recombinant galectin-3 expressed in E. coli
Kind of assay: intrinsic tryptophan fluorescence spectroscopy titration; also competitive ELISA against asialo-fetuin (IC50 […]) and CD. The format is binding.

In assay [2] the target is T1, galectin-3. Described as above. It counts as binding. The source holds these as a separate data set.

T1 sequence (P17931 2-250): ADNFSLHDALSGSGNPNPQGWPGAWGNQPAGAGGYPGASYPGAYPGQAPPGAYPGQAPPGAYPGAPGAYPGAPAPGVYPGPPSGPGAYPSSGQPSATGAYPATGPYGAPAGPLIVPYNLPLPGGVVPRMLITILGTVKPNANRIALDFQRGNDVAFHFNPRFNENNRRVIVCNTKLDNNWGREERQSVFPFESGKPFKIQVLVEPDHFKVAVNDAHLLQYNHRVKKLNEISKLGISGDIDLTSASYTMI

For `C[C@H]1COc2c(N3CCN(C)CC3)c(F)cc3c(=O)c(C(=O)NNc4ccc(N)cc4)cn1c23` [K2], binding in assay [1] was put at a Kd of 18.1 ± 1.5 µM.

Take `C[C@H]1COc2c(N3CCN(C)CC3)c(F)cc3c(=O)c(C(=O)NNc4cccc(N)c4)cn1c23` [L2]: the affinity in assay [2], expressed as Kd, was 30.2 ± 1.4 µM.
